# Results as given in patent US11278548B2, “Methods and compositions for reducing side effects in chemotherapeutic treatments” (Galderma Research and Development, priority 2017, dated 2022).
# “Also recorded” adds a separate entry of the source.
# Tested on: acneiform rash
structure (smiles),measurement,setting,value
"Brc1c(NC2=NCCN2)ccc2nccnc12 [brimonidine, (5-bromo-quinoxalin-6-yl)-(4,5-dihydro-1H-imidazol-2-yl)-amine]",treated patients with a decrease in rash severity,"18 EGFRI-treated patients, CTCAE v4.0 grading, followed for 12 to 24 weeks, n=17, most also on antibiotics or corticosteroids",94%
same,adverse events to brimonidine,"18 EGFRI-treated patients, followed for 12 to 24 weeks",not reported; also recorded: no adverse events
same,acneiform rash outcome (in words),"EGFRI-treated patients, 83% also receiving systemic antibiotics, topical antibiotics or corticosteroids",improvement in acneiform rash in all patients
same,dose modification of anticancer therapies,majority of treated patients,did not require dose modification
